# According to patent publication US20090181931A1, “ANTIVIRAL ACTIVITY OF CIDOFOVIR AGAINST ONCOLYTIC VIRUSES” (priority 2008, published 2009):
# Key:
# ONYX-015 = experiment: Real-time quantitative PCR, viral E1A copy number, ONYX-015 in H1299 cells; assay type: cell-based, adenovirus; conditions: for E1A copy number, % (relative to 0 uM) / E1A copy number/ng DNA: ONYX-015 MOI 10, H1299, 24 hours
# Procedure: (§1) Cells were seeded in 6-well plate (2 mL/well, 2×10^5 cells/well), and incubated with 5% CO2 at 37° C.
# (§2) Viruses were diluted at a MOI of 10. Medium in each well was removed, 500 μL of diluted virus solution was added to each well of the plate. Plates were incubated with 5% CO2 at 37° C. for 2 hours with gently shaking every 15 minutes. Medium was aspirated, washed with PBS twice, and replaced with fresh medium containing 2% FCS and serially diluted CDV. Cells were incubated with 5% CO2 at 37° C. for 24 hours after infection.
# (§3) Cells were detached with Trypsin-EDTA, and collected by centrifuging. Total DNA was extracted using QIAamp™ DNA Mini Kit according to manufacture's instructions with some modifications: addition of 20 μL of RNaseA in each sample when adding ProK. DNA was eluted by 50˜100 μL of D. W.
# (§4) Concentration of DNA was determined by measuring O.D.260. Each DNA samples was diluted by D. W. at a concentration of 5 ng/μL.
# (§5) Master-mix for E1A primer was prepared using LightCycler™ Faststart DNAMaster SYBR Green™ according to Table 1. Standard DNA was prepared by serially 10 times dilution of pCRII-E1A plasmid (1×10^9, 1×10^8, 1×10^7, 1×10^6, 1×10^5, 1×10^4, and 1×10^3 copies/μL). 2 μL of Sample or Standard DNA was and 18 μL of Master mix were added into capillaries (total volume was 20 μL per capillary).
# (§6) Q-PCR was performed according to the program of Table 2 (LightCycler quicksystem 350S). Results obtained here were analyzed using LightCycler softwere.
# [1] = tested on: Wild-type adenovirus (OBP-202); experiment: Real-time quantitative PCR, viral E1A copy number, wild-type adenovirus in H1299 cells; assay type: cell-based; conditions: for E1A copy number, % (relative to 0 μM) / E1A copy number/ng DNA: Wt-Ad MOI 10, H1299, 24 hours
# Procedure: as §1, §2, §3, §4, §5, §6
# TelomeScan (OBP-401) = experiment: Real-time quantitative PCR, viral E1A copy number, TelomeScan in H1299 cells; assay type: cell-based, adenovirus; conditions: for E1A copy number, % (relative to 0 uM) / E1A copy number/ng DNA: TelomeScan MOI 10, H1299, 24 hours
# Procedure: as §1, §2, §3, §4, §5, §6
structure (smiles),measurement,setting,value
"Nc1ccn(C[C@@H](CO)OCP(=O)(O)O)c(=O)n1.O.O [CDV, 1-[(S)-3-hydroxy-2-(phosphonomethoxy)propyl]cytosine dihydrate]","E1A copy number, % (relative to 0 uM)",ONYX-015; CDV 0.16 uM,86.98%
same,E1A copy number/ng DNA,ONYX-015; CDV 0.16 uM,2.291E+07 copy number/ng DNA
same,"E1A copy number, % (relative to 0 uM)",ONYX-015; CDV 0.8 uM,91.04%
same,E1A copy number/ng DNA,ONYX-015; CDV 0.8 uM,2.398E+07 copy number/ng DNA
same,"E1A copy number, % (relative to 0 uM)",ONYX-015; CDV 4 uM,83.71%
same,E1A copy number/ng DNA,ONYX-015; CDV 4 uM,2.205E+07 copy number/ng DNA
same,"E1A copy number, % (relative to 0 uM)",ONYX-015; CDV 20 uM,45.10%
same,E1A copy number/ng DNA,ONYX-015; CDV 20 uM,1.188E+07 copy number/ng DNA
same,"E1A copy number, % (relative to 0 uM)",ONYX-015; CDV 100 uM,11.20%
same,E1A copy number/ng DNA,ONYX-015; CDV 100 uM,2.950E+06 copy number/ng DNA
same,Viral E1A copy number,"ONYX-015; ONYX-015, H1299 cells, dose-dependent manner",reduced
same,"E1A copy number, % (relative to 0 μM)",[1]; CDV 0.16 μM,117.49%
same,E1A copy number/ng DNA,[1]; CDV 0.16 μM,6.152E+07 copy number/ng DNA
same,"E1A copy number, % (relative to 0 μM)",[1]; CDV 0.8 μM,95.65%
same,E1A copy number/ng DNA,[1]; CDV 0.8 μM,5.008E+07 copy number/ng DNA
same,"E1A copy number, % (relative to 0 μM)",[1]; CDV 4 μM,74.69%
same,E1A copy number/ng DNA,[1]; CDV 4 μM,3.911E+07 copy number/ng DNA
same,"E1A copy number, % (relative to 0 μM)",[1]; CDV 20 μM,32.83%
same,E1A copy number/ng DNA,[1]; CDV 20 μM,1.719E+07 copy number/ng DNA
same,"E1A copy number, % (relative to 0 μM)",[1]; CDV 100 μM,4.79%
same,E1A copy number/ng DNA,[1]; CDV 100 μM,2.509E+06 copy number/ng DNA
same,Viral E1A copy number,"[1]; wild-type AdV, H1299 cells, dose-dependent manner",reduced
same,"E1A copy number, % (relative to 0 uM)",TelomeScan (OBP-401); CDV 0.16 uM,103.48%
same,E1A copy number/ng DNA,TelomeScan (OBP-401); CDV 0.16 uM,2.350E+08 copy number/ng DNA
same,"E1A copy number, % (relative to 0 uM)",TelomeScan (OBP-401); CDV 0.8 uM,83.22%
same,E1A copy number/ng DNA,TelomeScan (OBP-401); CDV 0.8 uM,1.890E+08 copy number/ng DNA
same,"E1A copy number, % (relative to 0 uM)",TelomeScan (OBP-401); CDV 4 uM,100.62%
same,E1A copy number/ng DNA,TelomeScan (OBP-401); CDV 4 uM,2.285E+08 copy number/ng DNA
same,"E1A copy number, % (relative to 0 uM)",TelomeScan (OBP-401); CDV 20 uM,70.19%
same,E1A copy number/ng DNA,TelomeScan (OBP-401); CDV 20 uM,1.594E+08 copy number/ng DNA
same,"E1A copy number, % (relative to 0 uM)",TelomeScan (OBP-401); CDV 100 uM,21.83%
same,E1A copy number/ng DNA,TelomeScan (OBP-401); CDV 100 uM,4.957E+07 copy number/ng DNA
same,Viral E1A copy number,"TelomeScan (OBP-401); TelomeScan, H1299 cells, dose-dependent manner",reduced
